The record followed here is patent US20070232615A1, “Chemical Compounds” (priority 2004, published 2007).

For this test, the system named is HIV. The test is described as follows: HOS HIV infectivity assay (Table 2, strain not given). Format: cell-based. The settings on record: Human immunodeficiency virus 1, read-out: Activity Level. The protocol: HOS HIV-1 Infectivity Assay
Compounds were profiled against two HIV-1 viruses, the M-tropic (CCR5 utilizing) Ba-L strain and the T-tropic (CXCR4 utilizing) IIIB strain. Both viruses were propagated in human peripheral blood lymphocytes. Compounds were tested for there ability to block infection of the HOS cell line (expressing hCXCR4/hCCR5/hCD4/pHIV-LTR-luciferase) by either HIV-1 Ba-L or HIV-1 IIIB. Compound cytotoxicity was also examined in the absence of virus addition.
HOS HIV-1 Infectivity Assay Format
HOS cells (expressing hCXCR4/hCCR5/hCD4/pHIV-LTR-luciferase) were harvested and diluted in Dulbeccos modified Eagles media supplemented with 2% FCS and non-essential amino acid to a concentration of 60,000 cells/ml. The cells were plated into 96-well plates (100 ul per well) and the plates were placed in a tissue culture incubator (37° C.; 5% CO2/95% air) for a period of 24 h.
Subsequently, 50 ul of the desired drug solution (4 times the final concentration) was added to each well and the plates were returned to the tissue culture incubator (37° C.; 5% CO2/95% air) for 1 h. Following this incubation 50 ul of diluted virus was added to each well (approximately 2 million RLU per well of virus). The plates were returned to the tissue culture incubator (37° C.; 5% CO2/95% air) and were incubated for a further 96 h.
Following this incubation the endpoint for the virally infected cultures was quantified following addition of Steady-Glo Luciferase assay system reagent (Promega, Madison, Wis.). Cell viability or non-infected cultures was measured using a CellTiter-Glo luminescent cell viability assay system (Promega, Madison, Wis.). All luminescent readouts are performed on a Topcount luminescence detector (Packard, Meridien, Conn.).
Regarding `CN(Cc1cn2c(N3CCOCC3)cccc2n1)C1CCCc2cccnc21` (stereo not drawn) [Example 20, N-Methyl-N-{[5-(4-morpholinyl)imidazo[1,2-a]pyridin-2-yl]methyl}-5,6,7,8-tetrahydro-8-quinolinamine], the IC50 fell in the range of 0.5 to 10 µM.
Regarding `CC(C)N(Cc1cn2c(N3CCNCC3)cccc2n1)C1CCCc2cccnc21` (stereo not drawn) [Example 21, N-(1-Methylethyl)-N-{[5-(1-piperazinyl)imidazo[1,2-a]pyridin-2-yl]methyl}-5,6,7,8-tetrahydro-8-quinolinamine], the IC50 was below 0.1 µM.
In the case of `FC(F)(F)CN(Cc1cn2c(N3CCNCC3)cccc2n1)C1CCCc2cccnc21` (stereo not drawn) [Example 22, N-{[5-(1-piperazinyl)imidazo[1,2-a]pyridin-2-yl]methyl}-N-(2,2,2-trifluoroethyl)-5,6,7,8-tetrahydro-8-quinolinamine], the IC50 fell in the range of 0.1 to 0.5 µM.
Turning to `CN(Cc1cn2c(N3CC[C@@H](N(C)C)C3)cccc2n1)C1CCCc2cccnc21` (stereo partly drawn) [Example 23, N-({5-[(3R)-3-(Dimethylamino)-1-pyrrolidinyl]imidazo[1,2-a]pyridin-2-yl}methyl)-N-methyl-5,6,7,8-tetrahydro-8-quinolinamine], the IC50 is below 0.1 µM.
As for `CN(Cc1cn2c(N3CC[C@H](N(C)C)C3)cccc2n1)C1CCCc2cccnc21` (stereo partly drawn) [Example 24, N-({5-[(3S)-3-(Dimethylamino)-1-pyrrolidinyl]imidazo[1,2-a]pyridin-2-yl}methyl)-N-methyl-5,6,7,8-tetrahydro-8-quinolinamine], the figure is below 0.1 µM; as for `CN(Cc1cn2c(N3CC(N)C3)cccc2n1)C1CCCc2cccnc21` (stereo not drawn) [Example 25, N-{[5-(3-Amino-1-azetidinyl)imidazo[1,2-a]pyridin-2-yl]methyl}-N-methyl-5,6,7,8-tetrahydro-8-quinolinamine], below 0.1 µM.
Consider `CN(C)C1CN(c2cccc3nc(CN(C)C4CCCc5cccnc54)cn23)C1` (stereo not drawn) [Example 26, N-({5-[3-(Dimethylamino)-1-azetidinyl]imidazo[1,2-a]pyridin-2-yl}methyl)-N-methyl-5,6,7,8-tetrahydro-8-quinolinamine], for which the IC50 lay within 0.1 to 0.5 µM.
`CN(Cc1cn2c(N3CC[C@@H](N)C3)cccc2n1)C1CCCc2cccnc21` (stereo partly drawn) [Example 27, N-({5-[(3R)-3-Amino-1-pyrrolidinyl]imidazo[1,2-a]pyridin-2-yl}methyl)-N-methyl-5,6,7,8-tetrahydro-8-quinolinamine]: the IC50 was below 0.1 µM.
Turning to `CN1CCC(N(C)c2cccc3nc(CN(C)C4CCCc5cccnc54)cn23)CC1` (stereo not drawn) [Example 28, N-Methyl-N-({5-[methyl(1-methyl-4-piperidinyl)amino]imidazo[1,2-a]pyridin-2-yl}methyl)-5,6,7,8-tetrahydro-8-quinolinamine], the IC50 was 0.1 to 0.5 µM.
As to `CN1CCC(N(C)c2cccc3nc(CN(C)C4CCCc5cccnc54)cn23)C1` (stereo not drawn) [Example 29, N-Methyl-N-({5-[methyl(1-methyl-3-pyrrolidinyl)amino]imidazo[1,2-a]pyridin-2-yl}methyl)-5,6,7,8-tetrahydro-8-quinolinamine], the IC50 was below 0.1 µM.
For `CN(Cc1cn2c(N3CCCNCC3)cccc2n1)C1CCCc2cccnc21` (stereo not drawn) [Example 30, N-{[5-(Hexahydro-1H-1,4-diazepin-1-yl)imidazo[1,2-a]pyridin-2-yl]methyl}-N-methyl-5,6,7,8-tetrahydro-8-quinolinamine], the IC50 is below 0.1 µM.
As for `CN1CCCN(c2cccc3nc(CN(C)C4CCCc5cccnc54)cn23)CC1` (stereo not drawn) [Example 31, N-Methyl-N-{[5-(4-methylhexahydro-1H-1,4-diazepin-1-yl)imidazo[1,2-a]pyridin-2-yl]methyl}-5,6,7,8-tetrahydro-8-quinolinamine], the IC50 is below 0.1 µM.
As for `CN(C)CCN1CCN(c2cccc3nc(CN(C)C4CCCc5cccnc54)cn23)CC1` (stereo not drawn) [Example 32, N-[(5-{4-[2-(Dimethylamino)ethyl]-1-piperazinyl}imidazo[1,2-a]pyridin-2-yl)methyl]-N-methyl-5,6,7,8-tetrahydro-8-quinolinamine], the figure is 0.1 to 0.5 µM; as for `COCCN1CCN(c2cccc3nc(CN(C)C4CCCc5cccnc54)cn23)CC1` (stereo not drawn) [Example 33, N-Methyl-N-[(5-{4-[2-(methyloxy)ethyl]-1-piperazinyl}imidazo[1,2-a]pyridin-2-yl)methyl]-5,6,7,8-tetrahydro-8-quinolinamine], below 0.1 µM; as for `CN1CCN(c2cccc3nc(CN(C4CC4)C4CCCc5cccnc54)cn23)CC1` (stereo not drawn) [Example 34, N-Cyclopropyl-N-{[5-(4-methyl-1-piperazinyl)imidazo[1,2-a]pyridin-2-yl]methyl}-5,6,7,8-tetrahydro-8-quinolinamine], below 0.1 µM.
On to `CNC1CCN(c2cccc3nc(CN(C)C4CCCc5cccnc54)cn23)CC1` (stereo not drawn) [Example 36, N-Methyl-N-({5-[4-(methylamino)-1-piperidinyl]imidazo[1,2-a]pyridin-2-yl}methyl)-5,6,7,8-tetrahydro-8-quinolinamine], for which the IC50 is below 0.1 µM.
`CN(Cc1cn2c(N3CCC(N)CC3)cccc2n1)C1CCCc2cccnc21` (stereo not drawn) [Example 37, N-{[5-(4-Amino-1-piperidinyl)imidazo[1,2-a]pyridin-2-yl]methyl}-N-methyl-5,6,7,8-tetrahydro-8-quinolinamine]: the IC50 was below 0.1 µM.
As for `CN(C)C1CCN(c2cccc3nc(CN(C)C4CCCc5cccnc54)cn23)CC1` (stereo not drawn) [Example 38, N-({5-[4-(Dimethylamino)-1-piperidinyl]imidazo[1,2-a]pyridin-2-yl}methyl)-N-methyl-5,6,7,8-tetrahydro-8-quinolinamine], the figure is below 0.1 µM.
On to `CN1CCN(c2cccc3nc(CNC4CCCc5cccnc54)cn23)CC1` (stereo not drawn) [Example 39, N-{[5-(4-Methyl-1-piperazinyl)imidazo[1,2-a]pyridin-2-yl]methyl}-5,6,7,8-tetrahydro-8-quinolinamine], for which the IC50 is below 0.1 µM.
As for `CN(Cc1cn2c(-c3cccnc3)cccc2n1)C1CCCc2cccnc21` (stereo not drawn) [Example 40, N-Methyl-N-{[5-(3-pyridinyl)imidazo[1,2-a]pyridin-2-yl]methyl}-5,6,7,8-tetrahydro-8-quinolinamine], the figure is 0.5 to 10 µM.
On to `CN(C)Cc1cccc(-c2cccc3nc(CN(C)C4CCCc5cccnc54)cn23)c1` (stereo not drawn) [Example 41, N-[(5-{3-[(Dimethylamino)methyl]phenyl}imidazo[1,2-a]pyridin-2-yl)methyl]-N-methyl-5,6,7,8-tetrahydro-8-quinolinamine], for which the IC50 is 0.1 to 0.5 µM.
Consider `CN(C)Cc1ccccc1-c1cccc2nc(CN(C)C3CCCc4cccnc43)cn12` (stereo not drawn) [Example 42, N-[(5-{2-[(Dimethylamino)methyl]phenyl}imidazo[1,2-a]pyridin-2-yl)methyl]-N-methyl-5,6,7,8-tetrahydro-8-quinolinamine], for which the IC50 is 0.1 to 0.5 µM.
In the case of `CN(Cc1cn2c(N)cccc2n1)C1CCCc2cccnc21` (stereo not drawn) [Example 43, N-[(5-Aminoimidazo[1,2-a]pyridin-2-yl)methyl]-N-methyl-5,6,7,8-tetrahydro-8-quinolinamine], the IC50 lay in the range of 0.1 to 0.5 µM.
Regarding `CN(Cc1cn2c(NC(=O)c3cccnc3)cccc2n1)C1CCCc2cccnc21` (stereo not drawn) [Example 44, N-(2-{[Methyl(5,6,7,8-tetrahydro-8-quinolinyl)amino]methyl}imidazo[1,2-a]pyridin-5-yl)-3-pyridinecarboxamide], the IC50 is 0.5 to 10 µM.
